Test results from patent EP0584797A2, “Novel cephalosporin compounds and processes for the preparation thereof” (LUCKY LTD., priority 1992, dated 1994).
Converted amounts (≈) assume the structure as drawn.

Assays:
Test in all cases: minimal inhibitory concentration, two-fold agar dilution
Assay type in all cases: cell-based
[1] = system: Acinetobacter calcoaceticus ATCC 15473; settings: ATCC15473, Muller-Hinton agar, 37°C, 20 hours, read-out: MIC values against the standard strains
Protocol: (§1) These MIC values were taken by employing a two-fold dilution method: that is, two-fold serial dilutions of each of the test compounds were made and dispersed in a Muller-Hinton agar medium; 2µl of the standard test strain which had the 10⁷ CFU(Colony Forming Unit) per ml was inoculated on the medium; and these were incubated at 37°C for 20 hours.

[2] = system: Bacillus cereus ATCC 11778; settings: ATCC11778, Muller-Hinton agar, 37°C, 20 hours, read-out: MIC values against the standard strains
Protocol: as §1

[3] = system: Bacillus megaterium ATCC 9885; settings: Priestia megaterium, ATCC9885; Muller-Hinton agar; 37°C; 20 hours; read-out: MIC values against the standard strains
Protocol: as §1

[4] = system: Citrobacter freundii ATCC 8090; settings: ATCC8090, Muller-Hinton agar, 37°C, 20 hours, read-out: MIC values against the standard strains
Protocol: as §1

[5] = system: Enterobacter aerogenes ATCC 29751; settings: Klebsiella aerogenes, ATCC29751; Muller-Hinton agar; 37°C; 20 hours; read-out: MIC values against the standard strains
Protocol: as §1

[6] = system: Enterobacter cloacae ATCC 27508; settings: ATCC27508, Muller-Hinton agar, 37°C, 20 hours, read-out: MIC values against the standard strains
Protocol: as §1

[7] = system: Escherichia coli ATCC 10536; settings: ATCC10536, Muller-Hinton agar, 37°C, 20 hours, read-out: MIC values against the standard strains
Protocol: as §1

[8] = system: Escherichia coli ATCC 25922; settings: ATCC25922, Muller-Hinton agar, 37°C, 20 hours, read-out: MIC values against the standard strains
Protocol: as §1

[9] = system: Klebsiella pneumoniae ATCC 10031; settings: ATCC10031, Muller-Hinton agar, 37°C, 20 hours, read-out: MIC values against the standard strains
Protocol: as §1

[10] = system: Micrococcus luteus ATCC 9341; settings: ATCC9341, Muller-Hinton agar, 37°C, 20 hours, read-out: MIC values against the standard strains
Protocol: as §1

[11] = system: Morganella morganii ATCC 8076h; settings: ATCC8076H, Muller-Hinton agar, 37°C, 20 hours, read-out: MIC values against the standard strains
Protocol: as §1

[12] = system: Proteus mirabilis ATCC 25933; settings: ATCC25933, Muller-Hinton agar, 37°C, 20 hours, read-out: MIC values against the standard strains
Protocol: as §1

[13] = system: Proteus vulgaris ATCC 6059; settings: ATCC6059, Muller-Hinton agar, 37°C, 20 hours, read-out: MIC values against the standard strains
Protocol: as §1

[14] = system: Providencia rettgeri ATCC 9250; settings: ATCC9250, Muller-Hinton agar, 37°C, 20 hours, read-out: MIC values against the standard strains
Protocol: as §1

[15] = system: Pseudomonas aeruginosa ATCC 10145; settings: ATCC10145, Muller-Hinton agar, 37°C, 20 hours, read-out: MIC values against the standard strains
Protocol: as §1

[16] = system: Pseudomonas aeruginosa ATCC 25619; settings: ATCC25619, Muller-Hinton agar, 37°C, 20 hours, read-out: MIC values against the standard strains
Protocol: as §1

[17] = system: Pseudomonas aeruginosa ATCC 27853; settings: ATCC27853, Muller-Hinton agar, 37°C, 20 hours, read-out: MIC values against the standard strains
Protocol: as §1

[18] = system: Salmonella typhimurium ATCC 14028; settings: Salmonella enterica; Muller-Hinton agar; 37°C; 20 hours; read-out: MIC values against the standard strains
Protocol: as §1

[19] = system: Serratia marcescens ATCC 27117; settings: ATCC27117, Muller-Hinton agar, 37°C, 20 hours, read-out: MIC values against the standard strains
Protocol: as §1

[20] = system: Shigella flexneri ATCC 11836; settings: ATCC11836, Muller-Hinton agar, 37°C, 20 hours, read-out: MIC values against the standard strains
Protocol: as §1

[21] = system: Shigella sonnei ATCC 11060; settings: ATCC11060, Muller-Hinton agar, 37°C, 20 hours, read-out: MIC values against the standard strains
Protocol: as §1

[22] = system: Staphylococcus aureus ATCC 10537; settings: ATCC10537, Muller-Hinton agar, 37°C, 20 hours, read-out: MIC values against the standard strains
Protocol: as §1

[23] = system: Staphylococcus aureus ATCC 6538p; settings: ATCC6538P, Muller-Hinton agar, 37°C, 20 hours, read-out: MIC values against the standard strains
Protocol: as §1

[24] = system: Staphylococcus epidermidis ATCC 12228; settings: ATCC12228, Muller-Hinton agar, 37°C, 20 hours, read-out: MIC values against the standard strains
Protocol: as §1

[25] = system: Streptococcus faecalis ATCC 29212; settings: Enterococcus faecalis, ATCC29212; Muller-Hinton agar; 37°C; 20 hours; read-out: MIC values against the standard strains
Protocol: as §1

| SMILES | MIC [1] [µg/mL] | MIC [2] [µg/mL] | MIC [3] [µg/mL] | MIC [4] [µg/mL] | MIC [5] [µg/mL] | MIC [6] [µg/mL] | MIC [7] [µg/mL] | MIC [8] [µg/mL] | MIC [9] [µg/mL] | MIC [10] [µg/mL] | MIC [11] [µg/mL] | MIC [14] [µg/mL] | MIC [15] [µg/mL] | MIC [16] [µg/mL] | MIC [17] [µg/mL] | MIC [18] [µg/mL] | MIC [19] [µg/mL] | MIC [20] [µg/mL] | MIC [22] [µg/mL] | MIC [23] [µg/mL] | further results |
| --- | --- | --- | --- | --- | --- | --- | --- | --- | --- | --- | --- | --- | --- | --- | --- | --- | --- | --- | --- | --- | --- |
| C[n+]1cc(-c2ccccc2)c(N)nc1SCC1=C(C(=O)[O-])N2C(=O)[C@@H](NC(=O)/C(=N\OC(C)(C)C(=O)O)c3csc(N)n3)[C@H]2SC1 [Example 21, 7-[(Z)-2-(2-aminothiazol-4-yl)-2-(carboxyprop-2-oxyimino)acetamido]-3-(4-amino-5-phenyl-1-methylpyrimidinium-2-yl)thiomethyl-3-cephem-4-carboxylate] | 32 (≈ 46.7 µM) | 128 (≈ 187 µM) | 0.13 (≈ 0.19 µM) | 0.13 (≈ 0.19 µM) | 2 (≈ 2.92 µM) | 0.016 (≈ 0.0234 µM) | 0.13 (≈ 0.19 µM) | 0.13 (≈ 0.19 µM) | 0.031 (≈ 0.0453 µM) | 0.5 (≈ 0.73 µM) | ≤ 0.008 | ≤ 0.008 | 16 (≈ 23.4 µM) | 2 (≈ 2.92 µM) | 8 (≈ 11.7 µM) | 0.5 (≈ 0.73 µM) | 0.5 (≈ 0.73 µM) | 0.063 (≈ 0.092 µM) | 1 (≈ 1.46 µM) | 4 (≈ 5.84 µM) | MIC [12]: 0.25 µg/mL (≈ 0.365 µM); MIC [13]: 0.25 µg/mL (≈ 0.365 µM); MIC [21]: 0.13 µg/mL (≈ 0.19 µM); MIC [24]: 2 µg/mL (≈ 2.92 µM); MIC [25]: > 128 µg/mL |
| C[C@@H](O/N=C(\C(=O)N[C@@H]1C(=O)N2C(C(=O)[O-])=C(CSc3nc(N)c(N)c(N)[n+]3C)CS[C@H]12)c1csc(N)n1)C(=O)O [Example 82-b, 7-[(Z)-2-(2-aminothiazol-4-yl)-2-{1-carboxyeth-1-oxyimino}acetamido]-3-(4,5,6-triamino-1-methylpyrimidinium-2-yl)thiomethyl-3-cephem-4-carboxylate] | 8 (≈ 12.8 µM) | 128 (≈ 205 µM) | 0.5 (≈ 0.8 µM) | 0.063 (≈ 0.101 µM) | 0.5 (≈ 0.8 µM) | ≤ 0.008 | 0.031 (≈ 0.0496 µM) | 0.031 (≈ 0.0496 µM) | 0.031 (≈ 0.0496 µM) | 0.5 (≈ 0.8 µM) | ≤ 0.008 | ≤ 0.008 | 2 (≈ 3.2 µM) | 1 (≈ 1.6 µM) | 1 (≈ 1.6 µM) | 0.063 (≈ 0.101 µM) | 0.063 (≈ 0.101 µM) | 0.031 (≈ 0.0496 µM) | 2 (≈ 3.2 µM) | 8 (≈ 12.8 µM) | MIC [12]: 0.031 µg/mL (≈ 0.0496 µM); MIC [13]: 0.031 µg/mL (≈ 0.0496 µM); MIC [24]: 2 µg/mL (≈ 3.2 µM); MIC [25]: > 128 µg/mL |
| CC[C@@H](O/N=C(\C(=O)N[C@@H]1C(=O)N2C(C(=O)[O-])=C(CSc3nc(N)cc[n+]3N)CS[C@H]12)c1csc(N)n1)C(=O)O [Example 88-b, 7-[(Z)-2-(2-aminothiazol-4-yl)-2-{(R)-1-carboxyprop-1-oxyimino}acetamido]-3-(1,4-diaminopyrimidinium-2-yl)thiomethyl-3-cephem-4-carboxylate] | 8 (≈ 13.1 µM) | 128 (≈ 210 µM) | 1 (≈ 1.64 µM) | 0.063 (≈ 0.103 µM) | 1 (≈ 1.64 µM) | 0.016 (≈ 0.0262 µM) | 0.063 (≈ 0.103 µM) | 0.031 (≈ 0.0508 µM) | 0.031 (≈ 0.0508 µM) | 1 (≈ 1.64 µM) | ≤ 0.008 | ≤ 0.008 | 2 (≈ 3.28 µM) | 1 (≈ 1.64 µM) | 2 (≈ 3.28 µM) | 0.25 (≈ 0.41 µM) | 0.25 (≈ 0.41 µM) | 0.031 (≈ 0.0508 µM) | 4 (≈ 6.56 µM) | 4 (≈ 6.56 µM) | MIC [21]: 0.063 µg/mL (≈ 0.103 µM); MIC [24]: 2 µg/mL (≈ 3.28 µM); MIC [25]: > 128 µg/mL |
